Data set [1] has as its system Plasmodium falciparum. The data set is described as follows: Antiplasmodial activity against chloroquine-resistant Plasmodium falciparum K1 assessed as parasite growth inhibition. It is filed as functional, organism-based.
Data set [2] concerns Plasmodium falciparum. The data set is described as follows: Antiplasmodial activity against chloroquine-sensitive Plasmodium falciparum FCR3 assessed as parasite growth inhibition. It is filed as functional, organism-based.
A short description of data set [3]: Cytotoxicity against human MRC5 cells assessed as inhibition of cell growth. In kind it is toxicity, cell-based.
Data set [4] in a line: Selectivity index, ratio of IC50 for cytotoxicity against human MRC5 cells assessed as inhibition of cell growth to IC50 for antiplasmodial activity against chloroquine-resistant Plasmodium falciparum K1 assessed as parasite growth inhibition. It is filed as toxicity, cell-based. Conditions: MRC5 cells versus Plasmodium falciparum K1, read-out: Ratio IC50.
The nature of data set [5]: Selectivity index, ratio of IC50 for cytotoxicity against human MRC5 cells assessed as inhibition of cell growth to IC50 for antiplasmodial activity against […] assessed as parasite growth inhibition. It is filed as toxicity, cell-based. The settings on record: MRC5 cells versus Plasmodium falciparum FCR3, read-out: Ratio IC50.

In data set [6] the test system is Staphylococcus aureus. The data set is described as follows: Antimicrobial activity against Staphylococcus aureus KB210 ATCC 6538P at > 10 ug incubated for 1 to 2 days by paper disc method. It is filed as functional, organism-based. Conditions: dose > 10.0 µg, time 1-2 day.
Data set [7] has as its system Staphylococcus aureus. The data set is described as follows: Antimicrobial activity against Staphylococcus aureus KB210 ATCC 6538P assessed as reduction in bacterial growth incubated for 1 to 2 days by paper disc method. In kind it is functional, organism-based. Conditions: time 1-2 day.
Data set [8] relates to Kocuria rhizophila. The data set is described as follows: Antimicrobial activity against Kocuria rhizophila KB212 ATCC 9341 assessed as reduction in bacterial growth incubated for 1 to 2 days by paper disc method. It is filed as functional, organism-based. Conditions: time 1-2 day.
Data set [9] concerns Escherichia coli. The data set is described as follows: Antimicrobial activity against Escherichia coli KB213 NIHJ assessed as reduction in bacterial growth incubated for 1 to 2 days by paper disc method. In kind it is functional, organism-based. The settings on record: time 1-2 day.
In data set [10] the test system is Xanthomonas oryzae. The data set is described as follows: Antimicrobial activity against Xanthomonas oryzae KB88 assessed as reduction in bacterial growth incubated for 1 to 2 days by paper disc method. In kind it is functional, organism-based. Conditions: time 1-2 day.
The test system of data set [11] is Candida albicans. The data set is described as follows: Antimicrobial activity against Candida albicans KF assessed as reduction in […] growth KF1 ATCC 64584 incubated for 1 to 2 days by paper disc method. It is filed as functional, organism-based. Conditions: time 1-2 day.
Data set [12] relates to Kocuria rhizophila. The data set is described as follows: Antimicrobial activity against Kocuria rhizophila KB212 ATCC 9341 at 30 ug incubated for 1 to 2 days by paper disc method. In kind it is functional, organism-based. The settings on record: dose 30.0 µg, time 1-2 day.
The test system of data set [13] is Plasmodium berghei. The data set is described as follows: Antiplasmodial activity against Plasmodium berghei infected in ICR mouse model assessed as reduction in parasitaemia at 5 mg/kg, ip measured for 4 days by peters 4 day suppressive test. Set-up: scale not given: the % may be the effect or the level left. In kind it is functional.
Data set [14] is described as follows: Toxicity in ICR mouse assessed as body weight loss at 5 mg/kg, ip measured for 4 days. It is filed as organism-based. Conditions: in vivo, 96 h, time 4 day.
The test system of data set [15] is Plasmodium falciparum. The data set is described as follows: Antimalarial activity against chloroquine-resistant Plasmodium falciparum K1 assessed as parasite growth inhibition. In kind it is functional, organism-based.
Data set [16] can be described thus: Selectivity index, ratio of IC50 for cytotoxicity against human MRC5 cells assessed as inhibition of cell growth to IC50 for antimalarial activity against chloroquine-resistant Plasmodium falciparum K1 assessed as parasite growth inhibition. In kind it is toxicity, cell-based. Conditions: MRC5 cells versus Plasmodium falciparum K1, read-out: Ratio IC50.
The nature of data set [17]: Selectivity index, ratio of IC50 for cytotoxicity against human MRC5 cells assessed as inhibition of cell growth to IC50 for antimalarial activity against […] assessed as parasite growth inhibition. In kind it is toxicity, cell-based. The settings on record: MRC5 cells versus Plasmodium falciparum FCR3, read-out: Ratio IC50.

Data set [18] in a line: Acute toxicity in ICR mouse assessed as sedation at 60 mg/kg, ip and measured for 2 hrs. In kind it is organism-based. Conditions: in vivo.
Data set [19] relates to Plasmodium falciparum. The data set is described as follows: Antiplasmodial activity against Plasmodium falciparum Dd2 assessed as inhibition of parasite growth. It is filed as functional, organism-based.
Data set [20] concerns B16. The data set is described as follows: Cytotoxicity against mouse B16 cells assessed as reduction in cell growth incubated for 3 days. In kind it is functional, cell-based. The settings on record: B16, 72 h.
In data set [21] the test system is HeLa S3. The data set is described as follows: Cytotoxicity against human HeLa S3 cells assessed as reduction in cell growth incubated for 3 days. In kind it is functional, cell-based. The settings on record: HeLa S3, 72 h.

Each structure is given as a SMILES string. pIC50: −log10 of the molar value. Converted amounts (≈) assume the structure as drawn. The source made the active and inactive calls. The calls are words filed in the database; no cut-off is given here.

A word on the pIC50: it is the negative decadic logarithm of the IC50, by convention in mol/L. In general, IC50 refers to the concentration at which inhibition is half-maximal.

Regarding `C=CC(C)(C)c1c(O)cc2c(c1O)C(=O)[C@@](C)(O)[C@@H](CC=C(C)C)C2=O`, the pIC50 is 4.84 in data set [1], 4.66 in data set [2] and 4.16 in data set [3]. Also, the selectivity ratio in data set [4] turned out to be 4.7; in data set [5], 3.2. Moreover, the outcome in data set [6], in [7], in [8], in data set [9], in [10] and in data set [11] was Active.
In the case of `COC1=C(C)C(=O)c2c(cc3c(c2O)C(C)(CCC=C(C)C)C(C)O3)C1=O` (centres undefined), the negative logarithm of the IC50 (pIC50) was 6.52 in data set [1], 7.22 in data set [2] and 5.77 in data set [3]. Further, the selectivity ratio in [4] is 5.7; in data set [5] it was 28.3. Besides, the outcome in data set [12] was inactive. For the same compound, the results for the Activity in data set [13] and in [14] were 43.1% and “Non-Toxic”, respectively. For the same compound, the result in data set [7], in data set [8], in data set [9], in data set [10] and in [11] was Active.
`C[C@@H]1CC[C@H]2[C@@H](C)C(=O)O[C@@H]3O[C@@]4(C)CC[C@@H]1[C@]32OO4` [ARTEMISININ]: the pIC50 was 7.52 in [15] and under 4.60 in data set [3]. Also, the selectivity ratio in data set [16] and in [17] was over 800 in each case.
As for `C=CC(C)(C)c1c(O)cc2c(c1O)C(=O)[C@@](C)(O)[C@H](CC=C(C)C)C2=O`, the values for the pIC50 in data set [1], in [2] and in [3] were 4.36, 4.29 and 4.03, respectively. Moreover, the selectivity ratio was determined as 2.2 in [4] and 1.8 in [5]. For the same compound, the result in data set [6], in data set [7], in [8], in data set [9], in data set [10] and in data set [11] was Active.
For `C=CC(C)(C)c1c(O)cc2c(c1O)C(=O)[C@@]1(C)O[C@@]1(CC=C(C)C)C2=O`, the pIC50 in data set [1] was 6.70; in data set [2], 7.10; in data set [3] it was 6.15. In addition, the selectivity ratio in data set [4] was 3.5; in data set [5] it was 8.8. The result in [6], in [7], in [8], in data set [9], in [10] and in [11] was Active. Also, the Activity was 47.6% in data set [13], “Non-Toxic” in data set [18] and “Non-Toxic” in [14].
In the case of `CC(C)=CCC1=C(O)C(=O)c2c(O)ccc(O)c2C1=O`, in data set [19], the IC50 stood at 0.82 µg/mL (≈ 2.99 µM).
For `CCN(CC)CCCC(C)Nc1ccnc2cc(Cl)ccc12` (centres undefined) [CHLOROQUINE], the pIC50 in data set [3] was under 4.60.
In the case of `C[C@H]1[C@H](OC(=O)CCC(=O)O)O[C@@H]2O[C@@]3(C)CC[C@H]4[C@H](C)CC[C@@H]1[C@@]24OO3` [ARTESUNATE], the results for the Activity in data set [13] and in data set [14] were 94.2% and “Non-Toxic”, respectively.
On to `COC1=C(C)C(=O)c2c(cc(O)c3c2O[C@H](C)[C@]3(C)CCC=C(C)C)C1=O`, for which the values for the IC50 in data set [20] and in data set [21] were 0.63 µg/mL (≈ 1.7 µM) and 1.22 µg/mL (≈ 3.29 µM), respectively.

Values taken from ChEMBL document CHEMBL5335829, “Akedanones A-C, In Vitro and In Vivo Antiplasmodial 2,3-Dihydronaphthoquinones Produced by Streptomyces sp. K20-0187” (J Nat Prod, 2024).
